This is an account of results in PubChem BioAssay (NCI).

Among the test systems are MCF7 breast; NCI-H522 lung; KM12 colon; SF-295 CNS; OVCAR-8 ovarian; T-47D breast; RXF 393 renal; HOP-62 NSCLC; SNB-19 CNS; ACHN renal; MOLT-4 leukemia; SK-MEL-5 melanoma; U251 CNS; EKVX NSCLC; OVCAR-4 ovarian; PC-3 prostate; TK-10 renal; HS 578T breast.
Assay in all cases: NCI tumour cell line growth inhibition, 48 h

SMILES strings stand for the structures.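 Step 1: Grow cells in 96-well plates. Step 2: Expose to compound for 48 hours at 5 concentrations. Step 3: Interpolate endpoints linearly; if unreached, use highest concentration. TGI denotes the concentration required for complete inhibition of growth.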

For the molecule `CC1=C(C(=O)NNC(=O)C(N)=O)CC(C(=O)NNC(=O)C(N)=O)=C(C)N1`, the TGI in the assay with MCF7 breast, with NCI-H522 lung, in the assay with KM12 colon, with SF-295 CNS, in the assay on OVCAR-8 ovarian and in the assay on T-47D breast was greater than 100 µM throughout. Also, the TGI in the assay on RXF 393 renal, in the assay with HOP-62 NSCLC, in the assay with SNB-19 CNS, in the assay on ACHN renal, in the assay on MOLT-4 leukemia and in the assay on SK-MEL-5 melanoma was greater than 100 µM in each case. Moreover, the TGI in the assay with U251 CNS, in the assay on EKVX NSCLC, in the assay with OVCAR-4 ovarian, in the assay on PC-3 prostate, with TK-10 renal and in the assay with HS 578T breast was greater than 100 µM throughout.
Consider `COCOc1cc(OC)c(Br)cc1C/C(=N/O)C(=O)OC`, for which the TGI with MCF7 breast was greater than 100 µM; in the assay with NCI-H522 lung it was greater than 100 µM; in the assay with KM12 colon, greater than 100 µM; with SF-295 CNS it was greater than 100 µM; in the assay with OVCAR-8 ovarian it was greater than 100 µM; in the assay with T-47D breast, 70.3 µM. Besides, the TGI with RXF 393 renal, with HOP-62 NSCLC, in the assay on SNB-19 CNS, in the assay with ACHN renal, in the assay with MOLT-4 leukemia and with SK-MEL-5 melanoma was greater than 100 µM throughout. In addition, the TGI was greater than 100 µM in the assay with U251 CNS; greater than 100 µM in the assay on EKVX NSCLC; greater than 100 µM in the assay on OVCAR-4 ovarian; greater than 100 µM with PC-3 prostate; greater than 100 µM in the assay with TK-10 renal; 57.3 µM in the assay on HS 578T breast.
Take `Cc1cc(S(=O)(=O)Nc2nc3ccccc3[nH]2)c(S)cc1Cl`: the TGI in the assay on MCF7 breast, in the assay with NCI-H522 lung, in the assay on KM12 colon, in the assay with SF-295 CNS, in the assay on OVCAR-8 ovarian and in the assay on T-47D breast was greater than 100 µM each time. The TGI with RXF 393 renal, in the assay with HOP-62 NSCLC, with SNB-19 CNS, with ACHN renal, in the assay on MOLT-4 leukemia and in the assay with SK-MEL-5 melanoma was greater than 100 µM in each case. In addition, the TGI in the assay on U251 CNS is 78.3 µM; with EKVX NSCLC, 99.5 µM; in the assay on OVCAR-4 ovarian, greater than 100 µM; in the assay on PC-3 prostate, greater than 100 µM; in the assay on TK-10 renal, greater than 100 µM; with HS 578T breast, greater than 100 µM.
As for `CC(=O)c1cccc(Nc2c3ccccc3nc3occc23)c1`, the TGI with MCF7 breast was greater than 100 µM; with NCI-H522 lung it was 4.62 µM; with KM12 colon it was 52.6 µM; in the assay on SF-295 CNS, 44 µM; in the assay with OVCAR-8 ovarian, greater than 100 µM; in the assay with T-47D breast, 28 µM. Further, the TGI in the assay on RXF 393 renal is 6.73 µM; in the assay on HOP-62 NSCLC, 20.6 µM; with SNB-19 CNS, greater than 100 µM; in the assay on ACHN renal, greater than 100 µM; with MOLT-4 leukemia, 51.6 µM; in the assay with SK-MEL-5 melanoma, 23 µM. Further, the TGI in the assay on U251 CNS was greater than 100 µM; with EKVX NSCLC, greater than 100 µM; in the assay with OVCAR-4 ovarian, 6.67 µM; with PC-3 prostate, greater than 100 µM; with TK-10 renal, 94.1 µM; in the assay with HS 578T breast, 35.3 µM.
For the molecule `Nc1nc(N)c2ncn(-c3ccc(Cl)c(Cl)c3)c2n1`, the TGI in the assay on MCF7 breast is greater than 100 µM; with NCI-H522 lung, greater than 100 µM; with KM12 colon, 97.5 µM; in the assay on SF-295 CNS, 69.6 µM; with OVCAR-8 ovarian, greater than 100 µM; in the assay with T-47D breast it was greater than 100 µM. Besides, the TGI was 50.8 µM in the assay on RXF 393 renal; 87.7 µM with HOP-62 NSCLC; greater than 100 µM in the assay with SNB-19 CNS; greater than 100 µM in the assay on ACHN renal; 42.5 µM in the assay with MOLT-4 leukemia; greater than 100 µM in the assay on SK-MEL-5 melanoma. Further, the TGI in the assay on U251 CNS is greater than 100 µM; in the assay with EKVX NSCLC, greater than 100 µM; in the assay with OVCAR-4 ovarian, greater than 100 µM; in the assay on PC-3 prostate it was 82.1 µM; with TK-10 renal, 70.6 µM; in the assay on HS 578T breast, 42.4 µM.
As for `CN(C)Cc1cc(N=Nc2ccccc2Cl)ccc1O`, the TGI in the assay with MCF7 breast worked out at 33.5 µM; in the assay with NCI-H522 lung, 23.5 µM; in the assay with KM12 colon, 75.5 µM; in the assay on SF-295 CNS, 41.2 µM; in the assay on OVCAR-8 ovarian, 25.3 µM; with T-47D breast it was 71.5 µM. The TGI in the assay with RXF 393 renal was 60.8 µM; in the assay with HOP-62 NSCLC, 26.2 µM; in the assay on SNB-19 CNS, greater than 100 µM; with ACHN renal, 33.4 µM; with MOLT-4 leukemia, 28.3 µM; in the assay on SK-MEL-5 melanoma it was 24.6 µM. Also, the TGI was 59.3 µM in the assay with U251 CNS; greater than 100 µM in the assay with EKVX NSCLC; greater than 100 µM in the assay with OVCAR-4 ovarian; greater than 100 µM in the assay on PC-3 prostate; 65.8 µM in the assay with TK-10 renal; 48.4 µM with HS 578T breast.
Regarding `Cc1ccc(-c2cn3c(nc4ccccc43)c(-c3ccccc3)n2)cc1`, the TGI with MCF7 breast is greater than 100 µM; with NCI-H522 lung, greater than 100 µM; in the assay with KM12 colon, greater than 100 µM; in the assay on SF-295 CNS it was greater than 67.1 µM; with OVCAR-8 ovarian it was greater than 100 µM; with T-47D breast, greater than 91.7 µM. For the same molecule, the TGI with RXF 393 renal was greater than 61.3 µM; with HOP-62 NSCLC it was 43.7 µM; in the assay on SNB-19 CNS it was 48.7 µM; in the assay with ACHN renal it was greater than 100 µM; in the assay on MOLT-4 leukemia, greater than 100 µM; in the assay on SK-MEL-5 melanoma, greater than 100 µM. Moreover, the TGI with U251 CNS was greater than 66.6 µM; in the assay with EKVX NSCLC, greater than 100 µM; in the assay on OVCAR-4 ovarian, greater than 100 µM; in the assay with PC-3 prostate, greater than 100 µM; with TK-10 renal, greater than 76.5 µM; with HS 578T breast, greater than 77.2 µM.
